# Data taken from patent publication US8227508B2, “Dietary and pharmaceutical compositions containing carnosol and/or rosmanol and their uses” (DSM IP Assets B.V., priority 2006, dated 2012).
# Key:
# mouse = experiment: Marble burying test; format: in vivo; settings: −30 min
# Protocol: The method applied here follows that described by Broekkamp et al. (1986). Mice (n=15 per treatment group) were individually placed in transparent plastic cages (33×21×18 cm) with 5 cm of sawdust on the floor and 25 marbles (diameter 1 cm) grouped in the centre of the cage. A second, up-turned, cage served as a lid. The number of marbles covered by sawdust (by at least two-thirds) was counted at the end of the 30-min test period. Tests were performed by investigators blind to the drug treatment protocol.
# Prior to testing, all test cages and marbles were “impregnated” by leaving 10 naive mice in each cage for 15 minutes.
# Carnosol (3, 10 and 30 mg/kg) and rosmanol (10, 30 and 100 mg/kg) were administered i.p. 30 min before the test, and compared with a vehicle control group. Fluoxetine (32 mg/kg), administered under the same experimental conditions, was used as a reference substance.
# [1] = test system: synaptic markers pCREB, pMAPK, GluR1 in hippocampal slice cultures; experiment: Activation of synaptic (LTP) markers in hippocampal slice cultures; format: cell-based, Wistar rats; settings: hippocampal slices, 15 min treatment; for GluR1, percentage of control values: cell surface AMPA receptor 1; for pCREB, relative activation / pMAPK, relative activation: vs buffer-treated sister cultures
# Protocol: Seven-day-old Wistar rats were decapitated using a guillotine. In less than 1 minute the skull was opened, the cerebral hemispheres were separated and transferred and both hippocampi were dissected and transferred into ice-cold buffer containing 137 mM NaCl, 5 mM KCl, 0.85 mM Na2HPO4, 1.5 mM CaCl2, 0.66 mM KH2PO4, 0.28 mM MgSO4, 1 mM MgCl2, 2.7 mM NaHCO3, 1 mM Kynurenic acid and 0.6% D-glucose.
# Transverse hippocampal slices (400 μm) were prepared using a vibrating blade microtome (VT1200S; Leica Microsystems (Schweiz) AG, Heerbrugg, Switzerland) in the same buffer. Hippocampal slices were individually placed on membrane inserts (Millicell Culture Plate Inserts, 0.4 μm) and cultivated at 35° C., 5% CO2, 95% humidity in a medium containing a 1:1 mixture of BME and MEM (both from Invitrogen) containing 25% heat-inactivated horse serum, 1× GlutaMAX, 1× Penicillin/Streptomycin, 0.6% glucose and 1 mM Kynurenic acid (Stoppini, Buchs and Muller (1991), J. Neurosci. Methods, 37(2), 173-82).
# After 48 h in culture, synaptic NMDA receptors were activated by addition of carnosol or rosmanol for 15 min in 140 mM NaCl, 5 mM KCl, 1.3 mM CaCl2, 25 mM HEPES (pH 7.3), 33 mM D-glucose and 0.02 mM bicuculline methiodide. […] An additional positive control comprised the addition of 200 μM glycine to sister cultures. After the treatments, sections were washed and fixed for immunohistochemistry. Markers of enhanced synaptic activity, normally associated with long-term potentiation, representing an ex vivo model of learning and memory were quantitated (see Table 6, below).
# Treatment of hippocampal cultures with carnosol and rosmanol induced one or more biochemical markers typical for LTP (pCREB: activated form of the cAMP response element binding protein; pMAPK: activated form of the mitogen-activated protein kinase; GluR1: cell surface presence of AMPA receptor 1).
# [2] = target: T1, monoamine oxidase A (MAO-A) (Homo sapiens, UniProt P21397); experiment: Monoamine oxidase A inhibition (p-tyramine substrate, HRP/vanillic acid readout); format: biochemical; settings: mean ± s.e.m., n = 3
# T1 sequence (P21397 1-527): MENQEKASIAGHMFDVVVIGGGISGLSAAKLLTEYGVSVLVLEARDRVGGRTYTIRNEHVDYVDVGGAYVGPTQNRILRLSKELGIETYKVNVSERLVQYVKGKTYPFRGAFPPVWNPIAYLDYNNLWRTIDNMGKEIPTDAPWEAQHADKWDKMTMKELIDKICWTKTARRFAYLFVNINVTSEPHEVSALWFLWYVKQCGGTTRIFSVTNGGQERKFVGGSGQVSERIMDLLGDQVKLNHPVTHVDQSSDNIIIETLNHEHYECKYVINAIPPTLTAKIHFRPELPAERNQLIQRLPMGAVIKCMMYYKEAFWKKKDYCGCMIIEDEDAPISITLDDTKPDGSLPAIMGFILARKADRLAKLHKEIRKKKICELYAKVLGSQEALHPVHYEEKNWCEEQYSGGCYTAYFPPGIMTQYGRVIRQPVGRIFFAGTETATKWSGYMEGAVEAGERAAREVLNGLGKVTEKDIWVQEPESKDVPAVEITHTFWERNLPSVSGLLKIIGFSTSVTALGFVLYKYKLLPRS
# Protocol: The organic amines p-tyramine or benzylamine were used as substrates for the monoamine oxidase A (MAO-A) and B (MAO-B) enzymes respectively. The H2O2 produced by this reaction was quantified by reaction with vanillic acid, catalysed by horse radish peroxidase (HRP).
# The reactions were carried out at 37° C. in polystyrene microtitre plates. The MAO enzymes (final concentration 2 U/ml) were mixed with either p-tyramine (Sigma, final concentration 0.5 mM) or benzylamine (Sigma, final concentration 0.5 mM) as appropriate and the chromogenic solution (containing vanillic acid (Fluka), 4-aminoantipyrine (Fluka) and horse radish peroxidase (Sigma), final concentrations 0.25 mM, 0.125 mM and 1 U/ml, respectively) in 0.2 M potassium phosphate buffer, pH 7.6. After 40 min incubation, plates were analysed in a microtitre plate absorbance reader, e.g. Spectramax M5 (Molecular Devices Corporation), at 495 nm.
# The effects of carnosol and rosmanol on the monoamine oxidase enzymes were determined by their inclusion in the assay at a range of concentrations between 0.03 and 100 μM for 10 minutes prior to and during the incubation with substrate. To determine the effect of the compounds on the HRP-catalysed portion of the reaction, the MAO enzyme was replaced by H2O2 (Molecular Probes, final concentration 50 μM). […]
Compound,Number of marbles buried (% change from control) (mouse; 3 mg/kg i.p.),Number of marbles buried (% change from control) (mouse; 10 mg/kg i.p.),Number of marbles buried (% change from control) (mouse; 30 mg/kg i.p.),"GluR1, percentage of control values [1]","pCREB, relative activation [1]","pMAPK, relative activation [1]",IC50 [2],Number of marbles buried (% change from control) (mouse; 100 mg/kg i.p.)
"CC(C)c1cc2c(c(O)c1O)[C@@]13CCCC(C)(C)[C@@H]1C[C@@H]2OC3=O [Carnosol, carnosol]",−12%,−10%,−41%,608%,±,++,4 ± 0.1 µM,
"CC(C)c1cc2c(c(O)c1O)[C@@]13CCCC(C)(C)[C@@H]1[C@H](OC3=O)[C@H]2O [Rosmanol, rosmanol]",,−21%,−12%,320%,±,+,3.02 ± 0.48 µM,−55%
